Earlier results as cited in US20160074380A1, “Treatment Of Neurodegenerative Diseases With Combination Of Laquinimod And Fingolimod” (TEVA PHARMACEUTICAL INDUSTRIES LTD., priority 2014, published 2016).

Test system: mouse-cultured cortical cells
Settings: pretreatment; Di Menna, 2013; cited from earlier work

Question: Which “protection of neurons against NMDA toxicity” value does the source give for `CCCCCCCCc1ccc(CC[C@](N)(CO)COP(=O)(O)O)cc1` [FTY 720-P, fingolimod-phosphate] here?
Answer: protected neurons against NMDA toxicity

Question: Which “protection of neurons against NMDA toxicity” value does the source give for `CCCCCCCCCCCCC/C=C/[C@@H](O)[C@@H](N)COP(=O)(O)O` [S1P, sphingosine 1-phosphate] here?
Answer: protected neurons against NMDA toxicity
